In general, pIC50 refers to −log10 of the IC50, conventionally taken in molar units. Read a low pIC50 as a high IC50. In general, pKi refers to the negative decadic logarithm of the Ki, by convention in mol/L. Read a low pKi as a high Ki.

pIC50, pKi: −log10 of the molar value.

Series [1] deals with thrombin-activated platelets. The series is described as follows: Serotonin release assay. To be noted: p < 0.05. Format: cell-based. How it is done: Figure 7 Effect of PA, IVA, and 4-HA on granule secretion. Aliquots of washed platelets pre-treated with or without the compounds for 5 min were stimulated with 0.25 U/mL thrombin at 37 °C for 5 min. After stimulation, the platelets were centrifuged, and the supernatants were collected. Using these supernatants, ATP (A) or serotonin (B) release was determined according to the manufacturer’s instructions. Each value is the mean ± SD of triplicate measurements. # p < 0.01, compared to each control groups. * p < 0.05 and ** p < 0.01, compared to only thrombin-treated control groups. Thrombin, thrombin treated only; PA10-100, 10–100 μg of PA treated; IVA10-100, 10–100 μg of IVA treated; 4-HA10-100, 10–100 μg of 4-HA treated.
Aliquots of washed platelets (250 × 10^6/mL) pre-treated with the compounds for 5 min were activated with 0.25 U/mL of thrombin in the presence of 1 mM of Ca^2+ for 5 min at 37 °C, according to a previously described method, with slight modifications. After stimulation, the reaction solution was centrifuged at 4 °C and 12,000× g for 5 min, and the supernatant was collected for subsequent use. Serotonin release was determined using a serotonin enzyme-linked immunosorbent assay kit (Labor Diagnostika Nord GmbH & Co., Nordhorn, Germany), according to the manufacturer’s instructions.

The subject of the next series is leukocytes. Description: Hematological study, leukocyte count by hemocytometer. To be noted: 10 min, vs control. Format: cell-based. How it is done:
Figure 1 Blood cytotoxic effect of PA (A), IVA (B), and 4-HA (C). Aliquots of washed platelets (10^3/mL), erythrocytes (10^6/mL), and leukocytes (10^3/mL) were treated with or without the compounds for 10 min and cell number was determined by hemocytometer counts. Each value is the mean ± SD of triplicate measurements. * p < 0.05 and ** p < 0.01, compared to each control groups. 10–500, 10–100 μg of each compound treated.
Total white blood cells (leukocytes) and red blood cells (erythrocytes) were counted using a hemocytometer, as previously described. Blood was diluted 1:200 with Hayem’s fluid and the cells were counted in a loaded hemocytometer chamber. To count the blood platelets, blood was diluted in a ratio of 1:20 with a diluting fluid, and four large (1 mm^2) corner squares of the hemocytometer were counted under a light microscope. Aliquots of leukocytes (0.1 mL; 10^3/mL), erythrocytes (0.1 mL; 10^6/mL), and platelets (0.1 mL; 10^3/mL) were treated with or without the compounds for 10 min.

The next series has as its target T1, human FXIIIa (Homo sapiens, UniProt P00488).
T1 construct: purchased Sigma-Aldrich
T1 sequence (P00488 39-732 limits assumed): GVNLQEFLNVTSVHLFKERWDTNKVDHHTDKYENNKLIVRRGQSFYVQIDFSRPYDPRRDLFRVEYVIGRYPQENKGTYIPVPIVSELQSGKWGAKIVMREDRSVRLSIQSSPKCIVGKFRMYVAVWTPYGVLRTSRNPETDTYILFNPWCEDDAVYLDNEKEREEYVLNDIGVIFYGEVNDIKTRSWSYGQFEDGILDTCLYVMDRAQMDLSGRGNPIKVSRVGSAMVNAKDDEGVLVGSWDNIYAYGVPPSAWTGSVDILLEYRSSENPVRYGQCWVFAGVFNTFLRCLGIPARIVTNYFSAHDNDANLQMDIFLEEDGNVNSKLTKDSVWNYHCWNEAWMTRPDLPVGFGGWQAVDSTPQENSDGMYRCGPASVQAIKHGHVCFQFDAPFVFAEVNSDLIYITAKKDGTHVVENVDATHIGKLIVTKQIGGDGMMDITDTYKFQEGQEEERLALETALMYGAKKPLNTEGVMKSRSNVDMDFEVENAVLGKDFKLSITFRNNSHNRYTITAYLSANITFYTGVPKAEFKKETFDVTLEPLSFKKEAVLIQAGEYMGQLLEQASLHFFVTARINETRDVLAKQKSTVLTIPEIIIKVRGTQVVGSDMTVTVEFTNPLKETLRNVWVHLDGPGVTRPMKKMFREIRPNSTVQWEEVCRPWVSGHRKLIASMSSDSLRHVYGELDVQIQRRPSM
Description: FXIIIa activity and kinetic/inhibitor assay. To be noted: for FXIIIa activity: 1–20 μg, vs control, p < 0.05; for pIC50 / pKi / Kik/Kiv / Kcat / Vmax: FXIIIa; for inhibition type against FXIIIa: from Kik/Kiv ratio and Lineweaver–Burk plots. Type of series: biochemical. On the procedure: To determine the thrombin activity, various concentrations of compounds were treated with 1 U human thrombin in 100 μL of 20 mM Tris-HCl, as previously described. The reaction solutions were incubated for 15 min at 37 °C. After the incubation, 1 mM chromogenic substrate for thrombin (S-2238, HD-Phe-Pip-Arg-p-nitroanilide) was added and incubated for 1 h at 37 °C. Absorbance was measured at 405 nm to determine the enzymatic activity. To determine FXa activity, various concentrations of the compounds were mixed with 1 U human FXa in 20 mM Tris-HCl (pH 7.4) in volume of 100 μL, followed by incubation for 15 min at 37 °C. After adding 1 mM N-benzoyl-Ile-Glu-Gly-Arg-p-nitroanilide, a highly specific chromogenic peptide substrate for FXa, the reaction solutions were incubated for 1 h at 37 °C. The residual activity of FXa was measured at 405 nm and is presented as a percentage of inhibition. To investigate FXIIIa activity, various concentrations of the compounds were mixed with 1 U human FXIIIa in 20 mM Tris-HCl (pH 7.4) in a volume of 100 μL, followed by, incubation for 15 min at 37 °C as previously described. The residual activity of FXIIIa was measured using casein and fibrinogen-HRP, according to the manufacturer’s instructions, and was presented as a percentage of inhibition. The negative control was generated by treatment with only thrombin, FXa, or FXIIIa without treatment with any compound.
Kinetic assays were performed using PA, IVA, and 4-HA for procoagulant proteases (thrombin and FXa) and fibrinoligase (FXIIIa). The kinetic constants were calculated using Lineweaver–Burk plots based on the initial reaction rates with different concentrations (0.1, 0.5, 1, and 2 mM) of each substrate for thrombin, FXa, and FXIIIa treated with or without the compounds (0.065, 0.13, 0.33, 0.65, and 1.30 mM [1–20 μg]) in a total volume of 100 μL. The Michaelis–Menten constant (Km) and maximal velocity (Vmax) were calculated from the x and y intercepts, respectively. […] The median inhibitory concentration (IC50) was defined as the concentration required to reach a 50% reduction in the activity of the three target factors. The Kik and Kiv inhibition constants were calculated using a previously described method. The inhibition type of the compounds against the three target factors was evaluated according to a previously described inhibition type definition.

Turning to `COc1ccc(C(=O)O)cc1O` [IVA, isovanillic acid], in series [1] (50–100 μg), the thrombin-stimulated serotonin secretion result was “inhibited significantly”. In the series with leukocytes (10–50 μg/mL), the “effect on leukocyte number” value is listed as “did not cause any effect”. Besides, on human FXIIIa, the FXIIIa activity entry is listed as “significant reductions”, the pIC50 is 2.72, the pKi was 2.72 and the Kik/Kiv was found to be 10.4. On human FXIIIa, the “inhibition type against FXIIIa” value is “non-competitive inhibition type”. In addition, on human FXIIIa (compound 0.065 mM (1 μg)), the Kcat came out at 89.3 ± 0.09 s⁻¹ and the Vmax turned out to be 0.143 ± 0.02 mU/min. On human FXIIIa (compound 0.13 mM (2 μg)), the Kcat was found to be 84.5 ± 0.07 s⁻¹ and the Vmax is listed as 0.135 ± 0.03 mU/min. Also, on human FXIIIa (compound 0.325 mM (5 μg)), the Kcat worked out at 80.5 ± 0.05 s⁻¹ and the Vmax was 0.129 ± 0.04 mU/min. On human FXIIIa (compound 0.65 mM (10 μg)), the Kcat is 80.5 ± 0.09 s⁻¹ and the Vmax is 0.129 ± 0.03 mU/min. In addition, at human FXIIIa (compound 1.3 mM (20 μg)), the Kcat came to 68.7 ± 0.08 s⁻¹ and the Vmax turned out to be 0.110 ± 0.04 mU/min.

On to `O=C(O)c1ccc(O)c(O)c1` [PA, protocatechuic acid], for which, in series [1] (100 μg), the thrombin-stimulated serotonin secretion entry was “inhibited significantly”. For the same compound, the “effect on leukocyte number” value in the series with leukocytes (10–100 μg/mL) was “did not cause any effect”. In addition, on human FXIIIa, the FXIIIa activity entry is listed as “significant reductions”, the pIC50 was 2.79, the pKi was 2.79 and the Kik/Kiv is given as 6.1. Also, the “inhibition type against FXIIIa” value on human FXIIIa is “non-competitive inhibition type”. At human FXIIIa (compound 0.065 mM (1 μg)), the Kcat is 91.1 ± 0.03 s⁻¹ and the Vmax turned out to be 0.146 ± 0.03 mU/min. Also, at human FXIIIa (compound 0.13 mM (2 μg)), the Kcat was 84.4 ± 0.06 s⁻¹ and the Vmax is 0.135 ± 0.02 mU/min. Also, at human FXIIIa (compound 0.325 mM (5 μg)), the Kcat was determined as 80.1 ± 0.05 s⁻¹ and the Vmax came out at 0.128 ± 0.03 mU/min. In addition, at human FXIIIa (compound 0.65 mM (10 μg)), the Kcat is 71.8 ± 0.07 s⁻¹ and the Vmax was determined as 0.115 ± 0.04 mU/min. At human FXIIIa (compound 1.3 mM (20 μg)), the Kcat was 62.5 ± 0.04 s⁻¹ and the Vmax is listed as 0.100 ± 0.02 mU/min.

With `O=C(O)c1ccc(O)cc1` [4-HA, 4-hydroxybenzoic acid], the thrombin-stimulated serotonin secretion entry in series [1] (100 μg) is “inhibited significantly”. Moreover, the “effect on leukocyte number” value with leukocytes (10–50 μg/mL) is “did not cause any effect”. In addition, at human FXIIIa, the FXIIIa activity result is given as “significant reductions”, the pIC50 was 2.71, the pKi was 2.71 and the Kik/Kiv was found to be 6005.6. The “inhibition type against FXIIIa” value on human FXIIIa is recorded as “non-competitive inhibition type”. For the same compound, at human FXIIIa (compound 0.065 mM (1 μg)), the Kcat turned out to be 88.6 ± 0.10 s⁻¹ and the Vmax came to 0.142 ± 0.04 mU/min. On human FXIIIa (compound 0.13 mM (2 μg)), the Kcat is 87.7 ± 0.09 s⁻¹ and the Vmax was found to be 0.141 ± 0.04 mU/min. Also, at human FXIIIa (compound 0.325 mM (5 μg)), the Kcat turned out to be 77.2 ± 0.05 s⁻¹ and the Vmax is 0.124 ± 0.03 mU/min. At human FXIIIa (compound 0.65 mM (10 μg)), the Kcat stood at 70.5 ± 0.07 s⁻¹ and the Vmax came to 0.113 ± 0.03 mU/min. On human FXIIIa (compound 1.3 mM (20 μg)), the Kcat amounted to 62.0 ± 0.06 s⁻¹ and the Vmax was 0.099 ± 0.04 mU/min.

The record behind these values is paper PMC9181887, “In Vitro Antithrombotic, Hematological Toxicity, and Inhibitor Studies of Protocatechuic, Isovanillic, and p-Hydroxybenzoic Acids from Maclura tricuspidata (Carr.) Bur” (Molecules, 2022).
